“And” between values parts separate entries of the source, which are not always exact repeats. Identical values can stand only once.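 Five compound concentrations were applied to cells in 96-well plates for 48 hours; endpoints were derived by simple linear interpolation of the resulting dose-response curve. Abbreviation: GI50, concentration required for 50% inhibition of growth. The concentration for full growth arrest is given as TGI.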
Legend:
Assay in all cases: DTP human tumour cell line panel, 48 h
RXF 393 renal = system: RXF 393 renal
SNB-75 CNS = system: SNB-75 CNS
T-47D breast = system: T-47D breast
SK-MEL-2 melanoma = system: SK-MEL-2 melanoma
K-562 leukemia = system: K-562 leukemia
HOP-92 NSCLC = system: HOP-92 NSCLC
PC-3 prostate = system: PC-3 prostate
KM12 colon = system: KM12 colon
A549 NSCLC = system: A549 NSCLC
TK-10 renal = system: TK-10 renal

Work on Cn1c(-c2c(N)n(CCCN3CCOCC3)c3nc(C#N)c(C#N)nc23)nc2ccccc21 yielded a GI50 (RXF 393 renal) of 16.4 µM, a TGI (RXF 393 renal) of 45 µM and a GI50 (SNB-75 CNS) of 4.34 µM. For the same compound, the TGI (SNB-75 CNS) was 25 µM, the GI50 (T-47D breast) was 26.2 µM and the TGI (T-47D breast) was over 69.5 µM. It also gave a GI50 (SK-MEL-2 melanoma) of 45.3 µM, a TGI (SK-MEL-2 melanoma) of over 100 µM and a TGI (K-562 leukemia) of over 74.7 µM. It also gave a GI50 (HOP-92 NSCLC) of 2.73 µM, a TGI (HOP-92 NSCLC) of 49.8 µM and a GI50 (PC-3 prostate) of 3.82 µM. For the same compound, the TGI (PC-3 prostate) was over 100 µM, the GI50 (KM12 colon) was 12.4 µM and the TGI (KM12 colon) was 31.4 µM. For the same compound, the GI50 (A549 NSCLC) was 22.5 µM, the TGI (A549 NSCLC) was 46.3 µM and the GI50 (TK-10 renal) was 32.7 µM. For the same compound, the TGI (TK-10 renal) was 97.3 µM.

N=c1c2c(=N)n3c(nc2nc2n1-c1ccccc1Sc1ccccc1-2)sc1cc(Cl)ccc13 was tested, and the GI50 (RXF 393 renal) was 2.46 µM, the TGI (RXF 393 renal) was 9.52 µM and the GI50 (SNB-75 CNS) was 1.83 µM. The TGI (SNB-75 CNS) was 65.4 µM, the GI50 (T-47D breast) was 2.41 µM and the TGI (T-47D breast) was 9.5 µM. It also gave a GI50 (SK-MEL-2 melanoma) of 1.44 µM, a TGI (SK-MEL-2 melanoma) of 13.9 µM and a GI50 (K-562 leukemia) of 1.62 µM. The TGI (K-562 leukemia) was over 100 µM, the GI50 (HOP-92 NSCLC) was 0.517 µM and the TGI (HOP-92 NSCLC) was 4.15 µM. The GI50 (PC-3 prostate) was 2.64 µM, the TGI (PC-3 prostate) was over 100 µM and the GI50 (KM12 colon) was 2.34 µM. It also gave a TGI (KM12 colon) of 12.6 µM, a GI50 (A549 NSCLC) of 2.25 µM and a TGI (A549 NSCLC) of over 100 µM. The GI50 (TK-10 renal) was 3.64 µM and the TGI (TK-10 renal) was over 100 µM.

Compound NS(=O)(=O)OCCCCCCCOS(N)(=O)=O has a TGI (RXF 393 renal) of 660 µM, a TGI (SNB-75 CNS) of 711 µM and a TGI (T-47D breast) of 1880 µM. It also gave a TGI (SK-MEL-2 melanoma) of 836 µM, a TGI (K-562 leukemia) of 2110 µM and a TGI (HOP-92 NSCLC) of 781 µM. The TGI (PC-3 prostate) was 1240 µM, the TGI (KM12 colon) was 1000 µM and the TGI (A549 NSCLC) was 729 µM. For the same compound, the TGI (TK-10 renal) was 1920 µM.

With O=C1/C=C/[C@@H](O)[C@@H]2C[C@@H](O)C[C@H]2/C=C/CCC[C@H](C(F)(F)F)O1 the GI50 (RXF 393 renal) was 0.0864 µM, the TGI (RXF 393 renal) was 38.7 µM and the GI50 (SNB-75 CNS) was 0.0603 µM. It also gave a TGI (SNB-75 CNS) of over 100 µM, a GI50 (T-47D breast) of 0.184 µM and a TGI (T-47D breast) of 0.52 µM. For the same compound, the GI50 (SK-MEL-2 melanoma) was 0.244 µM, the TGI (SK-MEL-2 melanoma) was 0.78 µM and the GI50 (K-562 leukemia) was 0.336 µM. It also gave a TGI (K-562 leukemia) of over 69.1 µM, a GI50 (HOP-92 NSCLC) of 0.126 µM and a TGI (HOP-92 NSCLC) of 0.568 µM. It also gave a GI50 (PC-3 prostate) of 0.502 µM, a TGI (PC-3 prostate) of over 100 µM and a GI50 (KM12 colon) of 1.54 µM. It also gave a TGI (KM12 colon) of 16.2 µM, a GI50 (A549 NSCLC) of 2.1 µM and a TGI (A549 NSCLC) of over 100 µM. For the same compound, the GI50 (TK-10 renal) was 0.0888 µM and the TGI (TK-10 renal) was 0.78 µM.

O=C1c2ccccc2C(=O)c2c(OCCOCCO)cccc21 showed a TGI (RXF 393 renal) of over 100 µM, a TGI (SNB-75 CNS) of over 100 µM and a TGI (T-47D breast) of over 100 µM. It also gave a TGI (SK-MEL-2 melanoma) of over 100 µM, a TGI (K-562 leukemia) of over 100 µM and a TGI (HOP-92 NSCLC) of 96.9 µM. It also gave a TGI (PC-3 prostate) of over 100 µM, a TGI (KM12 colon) of over 100 µM and a TGI (A549 NSCLC) of over 100 µM. The TGI (TK-10 renal) was over 100 µM.

Compound COC(=O)c1ccc(NC(=O)Oc2ccc(N(CCCl)CCCl)cc2)cc1 has a GI50 (RXF 393 renal) of 6.28 µM, a TGI (RXF 393 renal) of 32.3 µM and a GI50 (SNB-75 CNS) of 6.16 µM. For the same compound, the TGI (SNB-75 CNS) was 54.5 µM, the GI50 (T-47D breast) was 2.87 µM and the TGI (T-47D breast) was 50.8 µM. The GI50 (SK-MEL-2 melanoma) was 20 µM, the TGI (SK-MEL-2 melanoma) was 52.5 µM and the GI50 (K-562 leukemia) was 4.85 µM. It also gave a TGI (K-562 leukemia) of over 100 µM, a GI50 (HOP-92 NSCLC) of 14.3 µM and a TGI (HOP-92 NSCLC) of 53.4 µM. The GI50 (PC-3 prostate) was 11.4 µM, the TGI (PC-3 prostate) was over 100 µM and the GI50 (KM12 colon) was 24.4 µM. For the same compound, the TGI (KM12 colon) was over 100 µM, the GI50 (A549 NSCLC) was 1.65 µM and the TGI (A549 NSCLC) was over 100 µM. For the same compound, the GI50 (TK-10 renal) was 21.6 µM and the TGI (TK-10 renal) was 58.9 µM.

CCCCCCCCCCCCCC[C@@H](O)[C@H]1CC[C@H]([C@H]2CC[C@H]([C@H](O)CCCCCC[C@@H](O)CC3=C[C@H](C)OC3=O)O2)O1 showed a GI50 (RXF 393 renal) of 2.72 µM, a TGI (RXF 393 renal) of over 25 µM and a GI50 (SNB-75 CNS) of 1.7 µM. The TGI (SNB-75 CNS) was 4.95 µM and > 25 µM, the GI50 (T-47D breast) was 2.14 µM and the TGI (T-47D breast) was over 25 µM. The GI50 (SK-MEL-2 melanoma) was 1.52 µM, the TGI (SK-MEL-2 melanoma) was 3.86 µM and > 25 µM and the GI50 (K-562 leukemia) was 1.47 µM. The TGI (K-562 leukemia) was over 25 µM, the GI50 (HOP-92 NSCLC) was over 25 µM and the TGI (HOP-92 NSCLC) was 8.37 µM and > 25 µM. The GI50 (PC-3 prostate) was 2.13 µM, the TGI (PC-3 prostate) was 7.31 µM and > 25 µM and the GI50 (KM12 colon) was 1.55 µM. For the same compound, the TGI (KM12 colon) was 4.1 µM and > 25 µM, the GI50 (A549 NSCLC) was 1.59 µM and the TGI (A549 NSCLC) was over 25 µM. For the same compound, the GI50 (TK-10 renal) was 2.72 µM and the TGI (TK-10 renal) was 8.15 µM and > 25 µM.

Work on O=c1[nH]cnc2c1nnn2CCCCCCCCCCCCn1nnc2c(=O)[nH]cnc21 yielded a TGI (RXF 393 renal) of over 50.5 µM, a TGI (SNB-75 CNS) of over 57.2 µM and a TGI (T-47D breast) of over 100 µM. It also gave a TGI (SK-MEL-2 melanoma) of 51 µM, a TGI (K-562 leukemia) of over 100 µM and a TGI (HOP-92 NSCLC) of 53 µM. The TGI (PC-3 prostate) was over 100 µM, the TGI (KM12 colon) was over 100 µM and the TGI (A549 NSCLC) was over 100 µM. The TGI (TK-10 renal) was 50.7 µM.

In the case of O=S(=O)(c1cnccc1N1CCN(CCO)CC1)N1CCCC1, the TGI (RXF 393 renal) was over 100 µM, the TGI (SNB-75 CNS) was over 100 µM and the TGI (T-47D breast) was over 100 µM. It also gave a TGI (SK-MEL-2 melanoma) of over 100 µM, a TGI (K-562 leukemia) of over 100 µM and a TGI (HOP-92 NSCLC) of over 100 µM. It also gave a TGI (PC-3 prostate) of over 100 µM, a TGI (KM12 colon) of over 100 µM and a TGI (A549 NSCLC) of over 100 µM. For the same compound, the TGI (TK-10 renal) was over 100 µM.

COc1ccc(N(C)c2nc(N)nc3sc4c(c23)CCCC4)cc1 showed a GI50 (RXF 393 renal) of under 0.01 µM, a TGI (RXF 393 renal) of 20.7 µM and a GI50 (SNB-75 CNS) of under 0.01 µM. For the same compound, the TGI (SNB-75 CNS) was 13.2 µM, the GI50 (T-47D breast) was under 0.01 µM and the TGI (T-47D breast) was 30.8 µM. The GI50 (SK-MEL-2 melanoma) was 0.0441 µM, the TGI (SK-MEL-2 melanoma) was 17.2 µM and the GI50 (K-562 leukemia) was under 0.01 µM. For the same compound, the TGI (K-562 leukemia) was over 42.2 µM, the GI50 (HOP-92 NSCLC) was under 0.0187 µM and the TGI (HOP-92 NSCLC) was 6.81 µM. The GI50 (PC-3 prostate) was under 0.01 µM, the TGI (PC-3 prostate) was 15.6 µM and the GI50 (KM12 colon) was under 0.01 µM. For the same compound, the TGI (KM12 colon) was 12 µM, the GI50 (A549 NSCLC) was under 0.0149 µM and the TGI (A549 NSCLC) was 17.3 µM. It also gave a GI50 (TK-10 renal) of under 0.0278 µM and a TGI (TK-10 renal) of 22 µM.

c1ccc2c3c([nH]c2c1)C(c1ccc(C2NCCc4c2[nH]c2ccccc42)cc1)NCC3 (centres undefined) showed a GI50 (RXF 393 renal) of 1.31 µM, a TGI (RXF 393 renal) of 2.67 µM and a GI50 (SNB-75 CNS) of 0.691 µM. It also gave a TGI (SNB-75 CNS) of 2.07 µM, a GI50 (T-47D breast) of 1.31 µM and a TGI (T-47D breast) of 3.06 µM. For the same compound, the GI50 (SK-MEL-2 melanoma) was 1.7 µM, the TGI (SK-MEL-2 melanoma) was 3.57 µM and the GI50 (K-562 leukemia) was 0.244 µM. It also gave a TGI (K-562 leukemia) of 0.488 µM, a GI50 (HOP-92 NSCLC) of 0.731 µM and a TGI (HOP-92 NSCLC) of 2.89 µM. For the same compound, the GI50 (PC-3 prostate) was 1.27 µM, the TGI (PC-3 prostate) was 2.69 µM and the GI50 (KM12 colon) was 1.07 µM. It also gave a TGI (KM12 colon) of 2.36 µM, a GI50 (A549 NSCLC) of 1.1 µM and a TGI (A549 NSCLC) of 2.54 µM. It also gave a GI50 (TK-10 renal) of 1.98 µM and a TGI (TK-10 renal) of 4.09 µM.

Reference: PubChem BioAssay (NCI)
